Series [1] is described as follows: Stability in mouse plasma assessed as parent compound remaining after 24 hrs. Conditions: read-out: Stability. The format is ADME, cell-free.
A short description of series [2]: Stability in human plasma assessed as parent compound remaining after 24 hrs. It counts as ADME, cell-free. Conditions: read-out: Stability.

Each structure is given as a SMILES string.

Consider `CC(=O)N[C@@H](Cc1ccccc1)C(=O)N[C@@H](CCC(N)=O)C(=O)N[C@@H](CO)C(=O)N[C@@H](CCCCN)C(=O)N1CCC[C@@H]1C(=O)N[C@@H](CC(N)=O)C(=O)N[C@H](C(=O)N[C@@H](Cc1cnc[nH]1)C(=O)N[C@H](C(=O)N[C@@H](CC(=O)O)C(=O)NCC(=O)N[C@@H](Cc1ccc(O)cc1)C(=O)N[C@@H](Cc1ccccc1)C(=O)N[C@@H](CCC(=O)O)C(=O)N[C@@H](CCCNC(=N)N)C(=O)N[C@@H](CC(C)C)C(=O)NC(C)(C)C(=O)N[C@@H](C)C(=O)N[C@@H](CCCCN)C(=O)N[C@@H](CC(C)C)C(N)=O)C(C)C)C(C)C`, for which the results for the remaining at 24 h in series [1] and in series [2] were 5 to 10% and 10 to 27%, respectively.
Taken in the same sequence, the figures for `CC(=O)N[C@@H](Cc1ccccc1)C(=O)N[C@@H](CCC(N)=O)C(=O)N[C@@H](CO)C(=O)N[C@@H](CCCCN)C(=O)N1CCC[C@@H]1C(=O)N[C@@H](CC(N)=O)C(=O)N[C@H](C(=O)N[C@@H](Cc1cnc[nH]1)C(=O)N[C@H](C(=O)N[C@@H](CC(=O)O)C(=O)NCC(=O)N[C@@H](Cc1ccc(O)cc1)C(=O)N[C@@H](Cc1ccccc1)C(=O)N[C@@H](CCC(=O)O)C(=O)N[C@@H](CCCNC(=N)N)C(=O)N[C@@H](CC(C)C)C(=O)NC(C)(C)C(=O)N[C@@H](C)C(=O)N[C@@H](CCCCN)C(=O)N[C@@H](CC(C)C)C(N)=O)c1ccccc1)C(C)C` were 4.8% and 34.7%.
Taken in the same sequence, the figures for `CC(=O)N[C@@H](Cc1ccccc1)C(=O)N[C@@H](CCC(N)=O)C(=O)N[C@@H](CO)C(=O)N[C@@H](CCCCN)C(=O)N1CCC[C@@H]1C(=O)N[C@@H](CC(N)=O)C(=O)N[C@H](C(=O)N[C@@H](Cc1cnc[nH]1)C(=O)N[C@H](C(=O)N[C@@H](CC(=O)O)C(=O)N[C@H](C)C(=O)N[C@@H](Cc1ccc(O)cc1)C(=O)N[C@@H](Cc1ccccc1)C(=O)N[C@@H](CCC(=O)O)C(=O)N[C@@H](CCCNC(=N)N)C(=O)N[C@@H](CC(C)C)C(=O)NC(C)(C)C(=O)N[C@@H](C)C(=O)N[C@@H](CCCCN)C(=O)N[C@@H](CC(C)C)C(N)=O)C(C)(C)C)C(C)C` were 47.2% and 100%.
`CCCCCCCCCCCCCCCC(=O)NCCCOCCOCCOCCCNC(=O)CCNC(=O)CCC(=O)NCCCC[C@H](NC(=O)[C@H](CC(C)C)NC(=O)[C@H](CCCCN)NC(=O)[C@H](C)NC(=O)C(C)(C)NC(=O)[C@H](CC(C)C)NC(=O)[C@H](CCCNC(=N)N)NC(=O)[C@H](CCC(=O)O)NC(=O)[C@H](Cc1ccccc1)NC(=O)[C@H](Cc1ccc(O)cc1)NC(=O)[C@@H](C)NC(=O)[C@H](CC(=O)O)NC(=O)[C@@H](NC(=O)[C@H](Cc1cnc[nH]1)NC(=O)[C@@H](NC(=O)[C@H](CSCNC(C)=O)NC(=O)[C@H]1CCCN1C(=O)[C@H](CCCCN)NC(=O)[C@H](CO)NC(=O)[C@H](CCC(N)=O)NC(=O)[C@H](Cc1ccccc1)NC(=O)CCCCC)C(C)C)C(C)(C)C)C(N)=O`: the values for the remaining at 24 h in series [1] and in series [2] were 67.5% and 108%, respectively.
Taken in the same sequence, the figures for `CC(=O)NCSC[C@H](NC(=O)[C@H]1CCCN1C(=O)[C@H](CCCCN)NC(=O)[C@H](CO)NC(=O)[C@H](CCC(N)=O)NC(=O)[C@H](Cc1ccccc1)NC(C)=O)C(=O)N[C@H](C(=O)N[C@@H](Cc1cnc[nH]1)C(=O)N[C@H](C(=O)N[C@@H](CC(=O)O)C(=O)N[C@H](C)C(=O)N[C@@H](Cc1ccc(O)cc1)C(=O)N[C@@H](Cc1ccccc1)C(=O)N[C@@H](CCC(=O)O)C(=O)N[C@@H](CCCNC(=N)N)C(=O)N[C@@H](CC(C)C)C(=O)NC(C)(C)C(=O)N[C@@H](C)C(=O)N[C@@H](CCCCN)C(=O)N[C@@H](CC(C)C)C(N)=O)C(C)(C)C)C(C)C` were 43% and 86.2%.
Taken in the same sequence, the figures for `CC(=O)NCSC[C@H](NC(=O)[C@H]1CCCN1C(=O)[C@H](CCCCN)NC(=O)[C@H](CO)NC(=O)[C@H](CCC(N)=O)NC(=O)[C@H](Cc1ccccc1)NC(C)=O)C(=O)N[C@H](C(=O)N[C@@H](Cc1c[nH]cn1)C(=O)N[C@H](C(=O)N[C@@H](CC(=O)O)C(=O)NCC(=O)N[C@@H](Cc1ccc(O)cc1)C(=O)N[C@@H](Cc1ccccc1)C(=O)N[C@@H](CCC(=O)O)C(=O)N[C@@H](CCCNC(=N)N)C(=O)N[C@@H](CC(C)C)C(=O)NC(C)(C)C(=O)N[C@@H](C)C(=O)N[C@@H](CCCCN)C(=O)N[C@@H](CC(C)C)C(N)=O)C(C)(C)C)C(C)C` were 36.1% and 81.2%.
Taken in the same sequence, the figures for `CC(=O)N[C@@H](Cc1ccccc1)C(=O)N[C@@H](CCC(N)=O)C(=O)N[C@@H](CO)C(=O)N[C@@H](CCCCN)C(=O)N1CCC[C@@H]1C(=O)N[C@@H](CC(N)=O)C(=O)N[C@H](C(=O)N[C@@H](Cc1cnc[nH]1)C(=O)N[C@H](C(=O)N[C@@H](CC(=O)O)C(=O)N[C@H](C)C(=O)N[C@@H](Cc1ccc(O)cc1)C(=O)N[C@@H](Cc1ccccc1)C(=O)N[C@@H](CCC(=O)O)C(=O)N[C@@H](CCCNC(=N)N)C(=O)N[C@@H](CC(C)C)C(=O)NC(C)(C)C(=O)NC(C)(C)C(=O)N[C@@H](CCCCN)C(=O)N[C@@H](CC(C)C)C(N)=O)C(C)(C)C)C(C)C` were 85.9% and 99.2%.
`CC(=O)N[C@@H](Cc1ccccc1)C(=O)N[C@@H](CCC(N)=O)C(=O)N[C@@H](CO)C(=O)N[C@@H](CCCCN)C(=O)N1CCC[C@@H]1C(=O)N[C@@H](CC(N)=O)C(=O)N[C@H](C(=O)N[C@@H](Cc1cnc[nH]1)C(=O)N[C@H](C(=O)N[C@@H](CC(=O)O)C(=O)N[C@H](C)C(=O)N[C@@H](Cc1ccc(O)cc1)C(=O)N[C@@H](Cc1ccccc1)C(=O)N[C@@H](CCC(=O)O)C(=O)N[C@@H](CCCNC(=N)N)C(=O)N[C@@H](CC(C)C)C(=O)NC1(C(=O)N[C@@H](C)C(=O)N[C@@H](CCCCN)C(=O)N[C@@H](CC(C)C)C(N)=O)Cc2ccccc2C1)C(C)(C)C)C(C)C`: the remaining at 24 h in series [1] was 53%; in series [2], 104%.
As for `CC(=O)N[C@@H](Cc1csc2ccccc12)C(=O)N[C@@H](CCC(N)=O)C(=O)N[C@@H](CO)C(=O)N[C@@H](CCCCN)C(=O)N1CCC[C@@H]1C(=O)N[C@@H](CC(N)=O)C(=O)N[C@H](C(=O)N[C@@H](Cc1cnc[nH]1)C(=O)N[C@H](C(=O)N[C@@H](CC(=O)O)C(=O)NCC(=O)N[C@@H](Cc1ccc(O)cc1)C(=O)N[C@@H](Cc1ccccc1)C(=O)N[C@@H](CCC(=O)O)C(=O)N[C@@H](CCCNC(=N)N)C(=O)N[C@@H](CC(C)C)C(=O)NC(C)(C)C(=O)N[C@@H](C)C(=O)N[C@@H](CCCCN)C(=O)N[C@@H](CC(C)C)C(N)=O)C(C)C)C(C)C`, the results for the remaining at 24 h in series [1] and in series [2] were 0% and 18.6%, respectively.
For `CC(=O)N[C@@H](Cc1ccccc1)C(=O)N[C@@H](CCC(N)=O)C(=O)N[C@@H](CO)C(=O)N[C@@H](CCCCN)C(=O)N1CCC[C@@H]1C(=O)N[C@@H](CC(N)=O)C(=O)N[C@H](C(=O)N[C@@H](Cc1cnc[nH]1)C(=O)N[C@H](C(=O)N1CCC[C@H]1C(=O)NCC(=O)N[C@@H](Cc1ccc(O)cc1)C(=O)N[C@@H](Cc1ccccc1)C(=O)NC(C)(C)C(=O)N[C@@H](CCCNC(=N)N)C(=O)N[C@@H](CC(C)C)C(=O)NC(C)(C)C(=O)N[C@@H](C)C(=O)N[C@@H](CCCCN)C(=O)N[C@@H](CC(C)C)C(N)=O)C(C)C)C(C)C`, in that order: 31.2% and 99.5%.
As for `CC(C)C[C@H](NC(=O)[C@H](CCCCN)NC(=O)[C@H](C)NC(=O)C(C)(C)NC(=O)[C@H](CC(C)C)NC(=O)[C@H](CCCNC(=N)N)NC(=O)[C@H](CCC(=O)O)NC(=O)[C@H](Cc1ccccc1)NC(=O)[C@H](Cc1ccc(O)cc1)NC(=O)[C@@H](C)NC(=O)[C@H](CC(=O)O)NC(=O)[C@@H](NC(=O)[C@H](Cc1cnc[nH]1)NC(=O)[C@@H](NC(=O)[C@H](CC(N)=O)NC(=O)[C@H]1CCCN1C(=O)[C@H](CCCCN)NC(=O)[C@H](CO)NC(=O)[C@H](CCC(N)=O)NC(=O)[C@H](Cc1ccccc1)NS(=O)(=O)c1cccc2ccccc12)C(C)C)C(C)(C)C)C(N)=O`, the remaining at 24 h was 52% in series [1] and 107% in series [2].
Taken in the same sequence, the figures for `CC(=O)N[C@@H](Cc1cccs1)C(=O)N[C@@H](CCC(N)=O)C(=O)N[C@@H](CO)C(=O)N[C@@H](CCCCN)C(=O)N1CCC[C@@H]1C(=O)N[C@@H](CC(N)=O)C(=O)N[C@H](C(=O)N[C@@H](Cc1cnc[nH]1)C(=O)N[C@H](C(=O)N[C@@H](CC(=O)O)C(=O)NCC(=O)N[C@@H](Cc1ccc(O)cc1)C(=O)N[C@@H](Cc1ccccc1)C(=O)N[C@@H](CCC(=O)O)C(=O)N[C@@H](CCCNC(=N)N)C(=O)N[C@@H](CC(C)C)C(=O)NC(C)(C)C(=O)N[C@@H](C)C(=O)N[C@@H](CCCCN)C(=O)N[C@@H](CC(C)C)C(N)=O)C(C)C)C(C)C` were 1.2% and 19.8%.
Taken in the same sequence, the figures for `CC(C)C[C@@H]1NC(=O)[C@H](CCCCN)NC(=O)[C@H](C)NC(=O)C(C)(C)NC(=O)[C@H](CC(C)C)NC(=O)[C@H](CCCNC(=N)N)NC(=O)[C@H](CCC(=O)O)NC(=O)[C@H](Cc2ccccc2)NC(=O)[C@H](Cc2ccc(O)cc2)NC(=O)CNC(=O)[C@H](CC(=O)O)NC(=O)[C@H](C(C)C)NC(=O)[C@H](Cc2cnc[nH]2)NC(=O)[C@H](C(C)C)NC(=O)[C@H](CC(N)=O)NC(=O)[C@H]2CCCN2C(=O)[C@H](CCCCN)NC(=O)[C@H](CO)NC(=O)[C@H](CCC(N)=O)NC(=O)[C@H](Cc2ccccc2)NC(=O)CCOCCOCCOCCNC1=O` were 38.1% and 62.8%.
With `CC(=O)N[C@@H](Cc1ccccc1)C(=O)N[C@@H](CCC(N)=O)C(=O)N[C@@H](CO)C(=O)N[C@@H](CCCCN)C(=O)N1CCC[C@@H]1C(=O)N[C@@H](CC(N)=O)C(=O)N[C@H](C(=O)N[C@@H](Cc1cnc[nH]1)C(=O)N[C@H](C(=O)N1CCC[C@H]1C(=O)N[C@H](CS)C(=O)N[C@@H](Cc1ccc(O)cc1)C(=O)N[C@@H](Cc1csc2ccccc12)C(=O)N[C@@H](CCS)C(=O)N[C@@H](CCCNC(=N)N)C(=O)N[C@@H](CC(C)C)C(=O)NC(C)(C)C(=O)N[C@H](C)C(=O)N[C@@H](CCCCN)C(=O)N[C@@H](CC(C)C)C(N)=O)C(C)C)C(C)C`, the figures for the remaining at 24 h in series [1] and in series [2] were 28.3% and 77.7%, respectively.
